Eleven molecules from ChEMBL document CHEMBL1201862, “PubChem BioAssay data set” (2004) can be followed below.

Among the test systems are HCT-116; U-251; SK-OV-3; SN12C; SF-539; SW-620; SK-MEL-28; Malme-3M; UO-31; COLO 205; HOP-62; MOLT-4; SF-295; IGROV-1; SF-268; M14; KM-20L2; OVCAR-8; HL-60; HOP-92.
Holding throughout (assay): NCI anticancer screen, dose series, 48 h

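Method: 48-hour compound exposure of cells in 96-well plates, five concentrations, linear interpolation of endpoints. Abbreviation: GI50, concentration required for 50% inhibition of growth.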 Calls of active or inactive are those of the source. Rule as the data show it: active = GI50 up to about 1.1 µM and inactive = higher. A value given as a limit tells only on which side of the number the result lay.

As for `N#CCCN(CCC#N)c1ccc(/C=C(/NC(=O)c2cc([N+](=O)[O-])ccc2Cl)C(=O)NN)cc1`, the GI50 with HCT-116, in the assay on U-251, with SK-OV-3, in the assay on SN12C, in the assay with SF-539 and with SW-620 was > 100 µM (inactive) each time. Moreover, the GI50 in the assay with SK-MEL-28 is > 100 µM (inactive); in the assay on Malme-3M, > 100 µM (inactive); with UO-31 it was > 100 µM (inactive); in the assay with COLO 205, > 100 µM (inactive); in the assay with HOP-62 it was > 100 µM (inactive); with MOLT-4, 44.8 µM (inactive). Further, the GI50 in the assay with SF-295 is > 100 µM (inactive); in the assay with IGROV-1, > 100 µM (inactive); in the assay with SF-268, > 100 µM (inactive); in the assay with M14, > 100 µM (inactive); in the assay on KM-20L2, > 100 µM (inactive); in the assay on OVCAR-8 it was 58.3 µM (inactive).
Regarding `O=C1OC(c2ccccc2)(c2ccccc2)CC1CN1CCOCC1` (stereo unspecified), the GI50 is 6.61 µM (inactive) in the assay with HL-60; 12.8 µM (inactive) with HCT-116; 25.4 µM (inactive) with U-251; 26.5 µM (inactive) with SK-OV-3; 12.5 µM (inactive) in the assay on SN12C; 17.5 µM (inactive) in the assay on SF-539. Besides, the GI50 in the assay on SW-620 is 5.07 µM (inactive); with SK-MEL-28, 18.1 µM (inactive); with Malme-3M, 13.5 µM (inactive); in the assay with UO-31 it was 29 µM (inactive); in the assay on COLO 205 it was 6.18 µM (inactive); in the assay with HOP-62, > 100 µM (inactive). For the same molecule, the GI50 in the assay with MOLT-4 was 24.5 µM (inactive); with IGROV-1, > 100 µM (inactive); with SF-268, 27.5 µM (inactive); with M14, 17.1 µM (inactive); in the assay with KM-20L2, 18.2 µM (inactive); with OVCAR-8, 57.8 µM (inactive).
On to `CN(C)/C=N/c1cc(=O)n(C)c(=O)n1C`, for which the GI50 in the assay on HOP-92, in the assay with HL-60, with HCT-116, in the assay with U-251, in the assay on SK-OV-3 and in the assay on SN12C was > 100 µM (inactive) throughout. The GI50 in the assay on SF-539, in the assay with SW-620, with SK-MEL-28, in the assay on Malme-3M, in the assay on UO-31 and in the assay with COLO 205 was > 100 µM (inactive) each time. Besides, the GI50 in the assay with HOP-62, in the assay with MOLT-4, in the assay with SF-295, in the assay on IGROV-1, with SF-268 and with M14 was > 100 µM (inactive) each time. The GI50 in the assay with OVCAR-8 was > 100 µM (inactive).
As for `CCOP1(=O)OCC2OC(n3cnc4c(N)ncnc43)C(O)C2O1.c1ccccc1` (stereo unspecified), the GI50 in the assay with HOP-92, in the assay on HL-60, in the assay on HCT-116, in the assay on U-251, in the assay on SK-OV-3 and in the assay with SN12C was > 100 µM (inactive) in each case. For the same molecule, the GI50 in the assay with SF-539, in the assay on SW-620, in the assay with SK-MEL-28, with Malme-3M, in the assay with UO-31 and with COLO 205 was > 100 µM (inactive) in each case. The GI50 in the assay with HOP-62, in the assay with MOLT-4, in the assay with SF-295, in the assay with IGROV-1, in the assay on SF-268 and in the assay on M14 was > 100 µM (inactive) throughout. Moreover, in the assay with OVCAR-8, the GI50 was > 100 µM (inactive).
`Oc1ccccc1/C=N/Cc1ccco1`: the GI50 in the assay with HL-60, in the assay on HCT-116, in the assay with U-251, in the assay with SK-OV-3, in the assay on SN12C and in the assay with SF-539 was > 100 µM (inactive) each time. The GI50 in the assay on SW-620, in the assay on SK-MEL-28, with Malme-3M, in the assay on UO-31, in the assay with HOP-62 and with MOLT-4 was > 100 µM (inactive) throughout. For the same molecule, the GI50 in the assay on SF-295, in the assay with IGROV-1, with SF-268, in the assay on M14, in the assay on KM-20L2 and with OVCAR-8 was > 100 µM (inactive) throughout.
For the molecule `O=c1[nH][nH]c(=S)c(=O)[nH]1`, the GI50 in the assay on HOP-92, in the assay with HL-60, in the assay with HCT-116, in the assay on U-251, with SK-OV-3 and in the assay with SN12C was > 100 µM (inactive) in each case. Moreover, the GI50 in the assay on SF-539, in the assay with SW-620, with SK-MEL-28, in the assay on Malme-3M, in the assay with UO-31 and with COLO 205 was > 100 µM (inactive) in each case. Further, the GI50 in the assay with HOP-62, in the assay on MOLT-4, in the assay with SF-295, with IGROV-1, with SF-268 and in the assay with M14 was > 100 µM (inactive) in each case. Further, in the assay with OVCAR-8, the GI50 is > 100 µM (inactive).
As for `CCOC(=O)CCC(NC(=O)c1ccc(Oc2nc3ccccc3nc2-c2ccccc2)cc1)C(=O)OCC` (stereo unspecified), the GI50 in the assay with HOP-92 is 5.51 µM (inactive); in the assay on HL-60, > 100 µM (inactive); with HCT-116, 12.9 µM (inactive); in the assay on U-251, 15.1 µM (inactive); with SK-OV-3, 27.9 µM (inactive); in the assay with SN12C, 30.3 µM (inactive). The GI50 in the assay with SF-539 was 3.6 µM (inactive); with SW-620, > 100 µM (inactive); with SK-MEL-28, 50.6 µM (inactive); with Malme-3M, 12.7 µM (inactive); in the assay on UO-31 it was 34 µM (inactive); with COLO 205 it was > 100 µM (inactive). Besides, the GI50 with HOP-62 was 11.2 µM (inactive); in the assay with MOLT-4, > 100 µM (inactive); in the assay with SF-295, 23.1 µM (inactive); with IGROV-1, 35.4 µM (inactive); in the assay on SF-268 it was 6.79 µM (inactive); in the assay on M14 it was > 62.1 µM (inactive). The GI50 in the assay on OVCAR-8 is 3.55 µM (inactive).
`CCC1OC2C(CC=C(C)C)=C3OC(C)(O)C(C)(CC)C(OC(=O)c4ccccc4)C3=C3OC(=O)C=C1C32` (stereo unspecified): the GI50 in the assay with HOP-92 was 70 µM (inactive); with HL-60, 3.44 µM (inactive); with HCT-116 it was 32.1 µM (inactive); in the assay on U-251, 67.9 µM (inactive); in the assay on SK-OV-3, 56.4 µM (inactive); with SN12C it was 27.7 µM (inactive). Besides, the GI50 is 25.2 µM (inactive) in the assay with SF-539; 57.1 µM (inactive) with SW-620; 83.9 µM (inactive) in the assay on SK-MEL-28; 39 µM (inactive) in the assay on Malme-3M; 37.2 µM (inactive) with UO-31; 18.1 µM (inactive) in the assay on COLO 205. Also, the GI50 in the assay with HOP-62 was 76.2 µM (inactive); with MOLT-4, 23.1 µM (inactive); in the assay on SF-295, 34.3 µM (inactive); with IGROV-1, 50.7 µM (inactive); in the assay with SF-268, 36 µM (inactive); in the assay with M14 it was 45.2 µM (inactive). Further, the GI50 with OVCAR-8 was 39.2 µM (inactive).
With `C=CC(C)(O)/C=C/C=C(\C)C(CC1OC1(C)C)OC(=O)/C(C)=C\C` (stereo unspecified), the GI50 in the assay with HOP-92, in the assay with HL-60, in the assay with HCT-116, in the assay with U-251, in the assay with SK-OV-3 and in the assay with SN12C was > 100 µM (inactive) in each case. Besides, the GI50 with SF-539, in the assay on SW-620, in the assay on SK-MEL-28, in the assay on Malme-3M, with UO-31 and in the assay with COLO 205 was > 100 µM (inactive) throughout. The GI50 in the assay with HOP-62, in the assay on MOLT-4, in the assay on SF-295, with IGROV-1, with SF-268 and in the assay with M14 was > 100 µM (inactive) in each case. Also, the GI50 in the assay with OVCAR-8 was > 100 µM (inactive).
For the molecule `CO/N=C(\C)c1ccc(Nc2c3ccccc3nc3occc23)cc1`, the GI50 in the assay with HOP-92 is 12.9 µM (inactive); in the assay on HL-60, 0.254 µM (active); with HCT-116, 0.374 µM (active); in the assay with U-251, 0.522 µM (active); with SK-OV-3, 1.16 µM (inactive); with SN12C, 1.4 µM (inactive). For the same molecule, the GI50 is 0.383 µM (active) in the assay with SF-539; 0.33 µM (active) with SW-620; 1.43 µM (inactive) with SK-MEL-28; 0.313 µM (active) in the assay with Malme-3M; 2.42 µM (inactive) in the assay with UO-31; 0.302 µM (active) in the assay with COLO 205. The GI50 in the assay on HOP-62 was 1.27 µM (inactive); with MOLT-4, 0.366 µM (active); in the assay on SF-295 it was 0.207 µM (active); with IGROV-1 it was 0.233 µM (active); with SF-268 it was 0.718 µM (active); in the assay on M14, 0.397 µM (active). Further, the GI50 in the assay with OVCAR-8 is 0.841 µM (active).
On to `COc1ccc(N2C(=O)c3cccnc3S2(=O)=O)cc1`, for which the GI50 in the assay with HOP-92, with HL-60, with HCT-116, in the assay with U-251, in the assay with SK-OV-3 and with SN12C was > 100 µM (inactive) in each case. Also, the GI50 in the assay on SF-539, with SW-620, in the assay on SK-MEL-28, in the assay on Malme-3M, in the assay on UO-31 and in the assay with COLO 205 was > 100 µM (inactive) throughout. Moreover, the GI50 in the assay on HOP-62, with MOLT-4, in the assay with SF-295, in the assay on IGROV-1, in the assay on SF-268 and with M14 was > 100 µM (inactive) throughout. For the same molecule, in the assay with OVCAR-8, the GI50 is > 100 µM (inactive).
